Holding throughout (format): organism-based
What all share (conditions): in vivo

In data set [1] the test system is Rattus norvegicus. In words: The hypotensive activity expressed as rating of therapeutic index (MED/LD50 <1/200).
In data set [2] the test system is Rattus norvegicus. In words: The hypotensive activity expressed as rating of therapeutic index (1/30> MED/LD50 >=1/200).
The subject of data set [3] is Rattus norvegicus. In words: The hypotensive activity expressed as rating of therapeutic index (MED/LD50 >=1/30).

Turning to `CCC(C)(C)NC(=NC#N)Nc1cccnc1`, the TI rating in the data set on Rattus norvegicus [1] is on record as 3.
`CC(C)CC(C)(C)/N=C(\NC#N)Nc1cccnc1`: the TI rating with Rattus norvegicus [1] was found to be 3.
`CC(C)(C)C(C)(C)/N=C(\NC#N)Nc1ccncc1` came in with a TI rating in the data set on Rattus norvegicus [2] of 2.
Same read-out and setting: the result for `CCC(CC)/N=C(\NC#N)Nc1ccncc1` reads 2.
Turning to `CC(C)C(/N=C(\NC#N)Nc1cccnc1)C(C)C`, the TI rating in the data set on Rattus norvegicus [1] amounted to 3.
As to `CC(C)(C)/N=C(\NC#N)Nc1ccc(Cl)nc1Cl`, in the data set on Rattus norvegicus [3], the TI rating came out at 1.
In the case of `CC(C)CCC(C)/N=C(\NC#N)Nc1ccncc1` (stereo not given), the TI rating in the data set with Rattus norvegicus [3] is given as 1.
For `CCC(/N=C(\NC#N)Nc1ccncc1)C(C)C` (stereo not given), the TI rating in the data set on Rattus norvegicus [2] is 2.
The compound `CC(C)CC(C)(C)/N=C(\NC#N)Nc1ccncc1` displayed a TI rating with Rattus norvegicus [2] of 2.
For `CC1(/N=C(\NC#N)Nc2cccnc2)CCC1`, the TI rating with Rattus norvegicus [3] stood at 1.
`CC(/N=C(\NC#N)Nc1ccncc1)c1ccccc1` (stereo not given) gave a TI rating with Rattus norvegicus [2] of 2.
As for `CC(C)C/N=C(\NC#N)Nc1cccnc1`, the TI rating in the data set with Rattus norvegicus [2] stood at 2.
The compound `N#CN/C(=N\C12C[C@H]3C[C@@H](C1)C[C@@H](C2)C3)Nc1ccncc1` yielded a TI rating with Rattus norvegicus [1] of 3.
Still for that read-out and setting: the figure for `CCC(C)(C)/N=C(\NC#N)Nc1ccncc1` is 3.
With `CCOCC/N=C(\NC#N)Nc1cccnc1`, the TI rating in the data set with Rattus norvegicus [3] came to 1.
Turning to `N#CN/C(=N\C1CCCC1)Nc1cccnc1`, the TI rating with Rattus norvegicus [2] amounted to 2.
`CC(C)(C)/N=C(\NC#N)Nc1cncc(Br)c1` came in with a TI rating with Rattus norvegicus [1] of 3.
For the compound `Cc1cc(C)nc(N/C(=N/C(C)(C)C)NC#N)c1`, the TI rating in the data set with Rattus norvegicus [3] is on record as 1.
On to `N#CN/C(=N\Cc1ccco1)Nc1cccnc1`, for which the TI rating in the data set with Rattus norvegicus [2] was 2.
With `CC(C)CC(C)/N=C(\NC#N)Nc1ccncc1` (stereo not given), in the data set on Rattus norvegicus [3], the TI rating is on record as 1.
In the case of `N#CN/C(=N\Cc1ccccc1)Nc1cccnc1`, the TI rating in the data set with Rattus norvegicus [2] is reported as 2.
`N#CNC(=N)Nc1cccnc1` showed a TI rating with Rattus norvegicus [3] of 1.
In the data set on Rattus norvegicus [3], `COc1ccc(/N=C(\NC#N)NC(C)(C)C)c(OC)n1` displayed a TI rating of 1.
Take `CCC(C)(C)/N=C(\NC#N)Nc1c(C)cc(C)nc1C`: the TI rating in the data set with Rattus norvegicus [3] worked out at 1.
Turning to `CC(C)(C)/N=C(/NC#N)Nc1cccnc1`, the TI rating with Rattus norvegicus [1] was 3.
The same measure, in the same setting: the figure for `CC(/N=C(/NC#N)Nc1cccnc1)C(C)(C)C` (stereo not given) is 3.
Same read-out and setting: the figure for `CC(C)(C)C/N=C(/NC#N)Nc1cccnc1` is 3.
In turn, `N#CN/C(=N\C1CCCCC1)Nc1cccnc1` registered a TI rating with Rattus norvegicus [2] of 2.
As to `CCN(CC)CC/N=C(\NC#N)Nc1cccnc1`, the TI rating in the data set on Rattus norvegicus [3] was 1.
For `N#CN/C(=N\CCc1ccccc1)Nc1cccnc1`, the TI rating with Rattus norvegicus [3] amounted to 1.
The compound `CCCC/N=C(\NC#N)Nc1cccnc1` registered a TI rating in the data set with Rattus norvegicus [2] of 2.
`N#CN/C(=N\CC1CCCO1)Nc1cccnc1` (stereo not given) registered a TI rating in the data set on Rattus norvegicus [3] of 1.
In turn, `N#CN/C(=N\C1CCCCC1)Nc1ccccn1` returned a TI rating in the data set with Rattus norvegicus [3] of 1.
Consider `N#CN/C(=N\c1ccccc1)Nc1ccncc1`, for which the TI rating in the data set on Rattus norvegicus [3] worked out at 1.
The compound `CC(C)C(C)(C)/N=C(\NC#N)Nc1ccncc1` registered a TI rating in the data set with Rattus norvegicus [2] of 2.
The same measure, in the same setting: the figure for `CCCCC/N=C(\NC#N)Nc1cccnc1` is 2; for `CC(C)(C)C/N=C(\NC#N)Nc1ccncc1` it is 2.
For `CC(C)(C)CC(C)(C)/N=C(\NC#N)Nc1cccnc1`, in the data set with Rattus norvegicus [3], the TI rating is on record as 1.
For the compound `CCCCC(CC)C/N=C(\NC#N)Nc1cccnc1` (stereo not given), in the data set with Rattus norvegicus [3], the TI rating came to 1.
Consider `N#CN/C(=N\C1CCCCC1)Nc1ccncc1`, for which the TI rating in the data set on Rattus norvegicus [3] was found to be 1.
`N#CN/C(=N\C(C1CC1)C1CC1)Nc1ccncc1` came in with a TI rating in the data set on Rattus norvegicus [2] of 2.
Regarding `CC(/N=C(\NC#N)Nc1ccncc1)C1CC1` (stereo not given), in the data set on Rattus norvegicus [2], the TI rating is on record as 2.
As to `CC(C)C(/N=C(\NC#N)Nc1ccncc1)C(C)C`, the TI rating in the data set with Rattus norvegicus [3] is 1.
On to `CC(C)C(C)(C)/N=C(\NC#N)Nc1cccnc1`, for which the TI rating in the data set with Rattus norvegicus [1] was 3.
In the data set on Rattus norvegicus [3], `CC(C)(NC(=NC#N)Nc1cccnc1)c1ccccc1` returned a TI rating of 1.
The same measure, in the same setting: the figure for `CC(C)(C)/N=C(\NC#N)Nc1ccc(Cl)cn1` is 1; for `CC(C)(C)/N=C(\NC#N)Nc1ccccn1` it is 1.
As to `CCC(C)/N=C(\NC#N)Nc1cccnc1` (stereo not given), the TI rating with Rattus norvegicus [2] was 2.
In the data set with Rattus norvegicus [3], `N#CN/C(=N\C12C[C@H]3C[C@@H](C1)C[C@@H](C2)C3)Nc1cccnc1` returned a TI rating of 1.
In the data set on Rattus norvegicus [2], `N#CN/C(=N\c1ccccc1)Nc1cccnc1` returned a TI rating of 2.
Same read-out and setting: the figure for `N#CN/C(=N\c1cccnc1)N1CCCCC1` is 2.
As for `CCC(CC)(CC)/N=C(\NC#N)Nc1cccnc1`, the TI rating in the data set with Rattus norvegicus [1] is given as 3.
Compound `N#CN/C(=N\Cc1ccccc1)Nc1ccncc1` gave a TI rating in the data set with Rattus norvegicus [2] of 2.
`CC(C)(C)CC(C)(C)/N=C(\NC#N)Nc1ccncc1` gave a TI rating in the data set with Rattus norvegicus [3] of 1.
On to `CCC(C)(CC)/N=C(\NC#N)Nc1cccnc1`, for which the TI rating in the data set on Rattus norvegicus [1] was found to be 3.
`CCCCCCC/N=C(\NC#N)Nc1cccnc1` yielded a TI rating in the data set with Rattus norvegicus [3] of 1.
`CC(C)/N=C(\NC#N)Nc1cccnc1` came in with a TI rating in the data set with Rattus norvegicus [1] of 3.
In the data set on Rattus norvegicus [2], `C=C(C)C/N=C(\NC#N)Nc1cccnc1` yielded a TI rating of 2.
In the data set on Rattus norvegicus [1], `CC(C)(C)/N=C(\NC#N)Nc1ccncc1` came in with a TI rating of 3.
Regarding `N#CN/C(=N\C1CCCCCCC1)Nc1ccncc1`, in the data set on Rattus norvegicus [3], the TI rating is on record as 1.
With `CCCC(C)(C)/N=C(\NC#N)Nc1cccnc1`, the TI rating in the data set on Rattus norvegicus [1] amounted to 3.
Compound `CCC(CC)/N=C(\NC#N)Nc1cccnc1` came in with a TI rating with Rattus norvegicus [3] of 1.
For `CCC(C)C(C)/N=C(\NC#N)Nc1ccncc1` (stereo not given), the TI rating with Rattus norvegicus [3] stood at 1.
The compound `N#CN/C(=N\C1CC1)Nc1cccnc1` had a TI rating with Rattus norvegicus [2] of 2.
`N#CN/C(=N\CCc1ccccc1)Nc1ccncc1`: the TI rating in the data set on Rattus norvegicus [2] came to 2.
On the same count and under the same terms, the figure for `CC(C)CC/N=C(\NC#N)Nc1cccnc1` is 2.
`CC(C)(C)C(C)(C)/N=C(\NC#N)Nc1cccnc1` yielded a TI rating with Rattus norvegicus [3] of 1.
`CCC/N=C(\NC#N)Nc1cccnc1` displayed a TI rating with Rattus norvegicus [2] of 2.
In the data set on Rattus norvegicus [3], `C/N=C(\NC#N)Nc1cccnc1` gave a TI rating of 1.
As for `CCC(C)(CC)/N=C(\NC#N)Nc1ccncc1`, in the data set on Rattus norvegicus [1], the TI rating came out at 3.
With `Cc1cccc(C)c1/N=C(\NC#N)Nc1cccnc1`, the TI rating in the data set with Rattus norvegicus [3] is 1.
As for `CCC(CC)(CC)/N=C(\NC#N)Nc1ccncc1`, the TI rating with Rattus norvegicus [1] is reported as 3.
On to `CC(C)(C)/N=C(\NC#N)Nc1cccnc1Cl`, for which, in the data set with Rattus norvegicus [1], the TI rating is 3.
Compound `COc1ccc(N/C(=N/C(C)(C)C)NC#N)cn1` came in with a TI rating with Rattus norvegicus [3] of 1.
On the same count and under the same terms, the figure for `Cc1cc(C)c(/N=C(\NC#N)NC(C)(C)C)c(C)n1` is 1.

For the origin of these results see ChEMBL document CHEMBL1121594, “Adaptive least-squares method applied to structure--activity correlation of hypotensive N-alkyl-N''-cyano-N'-pyridylguanidines” (J Med Chem, 1980).
